Source: the NIST ThermoML archive (doi:10.1021/je900691n)

Assay: xn = mol fraction of the nth substance listed
Details: Liquid, Pycnometric method

COC(=O)OC [dimethyl carbonate] + O=C=O
mass density [kg/m3]
Details	323.15 K	327.95 K
8540 kPa, x1 = 0.1484	–	839
8840 kPa, x1 = 0.1484	–	844
8920 kPa, x1 = 0.118	–	801
9150 kPa, x1 = 0.0242	–	333
9160 kPa, x1 = 0.118	–	806
9180 kPa, x1 = 0.0242	–	337
9250 kPa, x1 = 0.0242	–	344
9290 kPa, x1 = 0.1484	–	850
9320 kPa, x1 = 0.0242	–	352
9320 kPa, x1 = 0.086	–	724
9400 kPa, x1 = 0.0242	–	359
9470 kPa, x1 = 0.0242	–	369
9470 kPa, x1 = 0.118	–	812
9540 kPa, x1 = 0.0242	–	378
9620 kPa, x1 = 0.0242	495	387
9690 kPa, x1 = 0.0242	–	397
9710 kPa, x1 = 0.0242	509	–
9720 kPa, x1 = 0.086	–	740
9740 kPa, x1 = 0.118	852	–
9750 kPa, x1 = 0.0481	666	–
9760 kPa, x1 = 0.086	792	–
9760 kPa, x1 = 0.1484	883	–
9800 kPa, x1 = 0.0242	523	–
9900 kPa, x1 = 0.0242	536	–
9930 kPa, x1 = 0.0242	541	–
10010 kPa, x1 = 0.0481	683	–
10220 kPa, x1 = 0.118	859	–
10280 kPa, x1 = 0.086	803	–
10280 kPa, x1 = 0.1484	888	–
10350 kPa, x1 = 0.0481	700	–
10740 kPa, x1 = 0.086	813	–
10740 kPa, x1 = 0.118	866	–
10740 kPa, x1 = 0.1484	893	–
10780 kPa, x1 = 0.0481	719	–
11230 kPa, x1 = 0.086	822	–
11230 kPa, x1 = 0.118	872	–
11230 kPa, x1 = 0.1484	897	–
11360 kPa, x1 = 0.0481	739	–
11670 kPa, x1 = 0.086	829	–
11750 kPa, x1 = 0.118	878	–
11760 kPa, x1 = 0.1484	901	–
11870 kPa, x1 = 0.0481	754	–
12240 kPa, x1 = 0.1484	905	–
12270 kPa, x1 = 0.118	883	–
12310 kPa, x1 = 0.086	839	–
12390 kPa, x1 = 0.0481	768	–
12740 kPa, x1 = 0.086	844	–
12750 kPa, x1 = 0.118	888	–
12770 kPa, x1 = 0.1484	910	–
12920 kPa, x1 = 0.0481	780	–
13190 kPa, x1 = 0.086	851	–
13260 kPa, x1 = 0.1484	913	–
13310 kPa, x1 = 0.118	894	–
13550 kPa, x1 = 0.0481	792	–
13740 kPa, x1 = 0.086	857	–
13760 kPa, x1 = 0.1484	918	–
13830 kPa, x1 = 0.118	898	–
14230 kPa, x1 = 0.086	863	–
14270 kPa, x1 = 0.118	902	–
14330 kPa, x1 = 0.1484	922	–
14730 kPa, x1 = 0.086	868	–
14750 kPa, x1 = 0.118	907	–
14820 kPa, x1 = 0.1484	925	–
15220 kPa, x1 = 0.086	873	–
15250 kPa, x1 = 0.118	911	–
15510 kPa, x1 = 0.1484	930	–
15660 kPa, x1 = 0.086	878	–
15740 kPa, x1 = 0.118	914	–
16130 kPa, x1 = 0.086	883	–
16420 kPa, x1 = 0.1484	936	–
16430 kPa, x1 = 0.118	920	–
